Results as given in ChEMBL document CHEMBL3045573, “Design, synthesis, and quantitative structure-activity relationship study of herbicidal analogues of pyrazolo[5,1-d][1,2,3,5]tetrazin-4(3H)ones” (2007).

Experiments:
Format in all cases: functional
Conditions in all cases: read-out: GI
Echinochloa crus-galli [1] = assay: Herbicidal activity against Echinochloa crus-galli (barnyard grass) assessed as inhibition of seedling growth at 10 ug/mL for 65 hr at 28 +/- 1 degC by cup test
Echinochloa crus-galli [2] = assay: Herbicidal activity against Echinochloa crus-galli (barnyard grass) assessed as inhibition of seedling growth at 100 ug/mL for 65 hr at 28 +/- 1 degC by cup test
[3] = system: Brassica rapa subsp. oleifera; assay: Herbicidal activity against Brassica rapa subsp. oleifera assessed as inhibition of root growth of rape seed at 10 ug/mL for 65 hr at 28 +/- 1 degC by root test
[4] = system: Brassica rapa subsp. oleifera; assay: Herbicidal activity against Brassica rapa subsp. oleifera assessed as inhibition of root growth of rape seed at 100 ug/mL for 65 hr at 28 +/- 1 degC by root test

C=CCOc1cc(-n2nnc3c(C(=O)OCC)c(C(F)(F)F)nn3c2=O)c(F)cc1Cl
inhibition of growth at 10 µg/mL (Echinochloa crus-galli [1]): 0% | inhibition of growth at 100 µg/mL (Echinochloa crus-galli [2]): 16% | inhibition of growth at 10 µg/mL [3]: 0% | inhibition of growth at 100 µg/mL [4]: 2%

CCCOc1cc(-n2nnc3c(C(=O)OCC)c(C)nn3c2=O)c(F)cc1Cl
inhibition of growth at 10 µg/mL (Echinochloa crus-galli [1]): 0% | inhibition of growth at 100 µg/mL (Echinochloa crus-galli [2]): 18% | inhibition of growth at 10 µg/mL [3]: 0% | inhibition of growth at 100 µg/mL [4]: 0%

CCCOc1cc(-n2nnc3c(C(=O)OCC)c(SC)nn3c2=O)c(F)cc1Cl
inhibition of growth at 10 µg/mL (Echinochloa crus-galli [1]): 0% | inhibition of growth at 100 µg/mL (Echinochloa crus-galli [2]): 12% | inhibition of growth at 10 µg/mL [3]: 0% | inhibition of growth at 100 µg/mL [4]: 2%

CCCOc1cc(-n2nnc3c(C(=O)OCC)c(C(F)(F)F)nn3c2=O)c(F)cc1Cl
inhibition of growth at 10 µg/mL (Echinochloa crus-galli [1]): 0% | inhibition of growth at 100 µg/mL (Echinochloa crus-galli [2]): 20% | inhibition of growth at 10 µg/mL [3]: 0% | inhibition of growth at 100 µg/mL [4]: 5%

CCOC(=O)c1c(SC)nn2c(=O)n(-c3cc(OC(C)C)c(Cl)cc3F)nnc12
inhibition of growth at 10 µg/mL (Echinochloa crus-galli [1]): 0% | inhibition of growth at 100 µg/mL (Echinochloa crus-galli [2]): 20% | inhibition of growth at 10 µg/mL [3]: 0% | inhibition of growth at 100 µg/mL [4]: 13%

CCOC(=O)c1c(SC)nn2c(=O)n(-c3cccc(C(F)(F)F)c3)nnc12
inhibition of growth at 10 µg/mL (Echinochloa crus-galli [1]): 0% | inhibition of growth at 100 µg/mL (Echinochloa crus-galli [2]): 0% | inhibition of growth at 10 µg/mL [3]: 34% | inhibition of growth at 100 µg/mL [4]: 37%

CCOC(=O)c1c(C(F)(F)F)nn2c(=O)n(-c3cccc(C(F)(F)F)c3)nnc12
inhibition of growth at 10 µg/mL (Echinochloa crus-galli [1]): 0% | inhibition of growth at 100 µg/mL (Echinochloa crus-galli [2]): 1% | inhibition of growth at 10 µg/mL [3]: 0% | inhibition of growth at 100 µg/mL [4]: 14%

CCOC(=O)c1c(C)nn2c(=O)n(-c3ccccc3C(F)(F)F)nnc12
inhibition of growth at 10 µg/mL (Echinochloa crus-galli [1]): 0% | inhibition of growth at 100 µg/mL (Echinochloa crus-galli [2]): 6% | inhibition of growth at 10 µg/mL [3]: 5% | inhibition of growth at 100 µg/mL [4]: 86%

CCOC(=O)c1c(SC)nn2c(=O)n(-c3ccccc3C(F)(F)F)nnc12
inhibition of growth at 10 µg/mL (Echinochloa crus-galli [1]): 0% | inhibition of growth at 100 µg/mL (Echinochloa crus-galli [2]): 0% | inhibition of growth at 10 µg/mL [3]: 0% | inhibition of growth at 100 µg/mL [4]: 23%

CCOC(=O)c1c(C(F)(F)F)nn2c(=O)n(-c3ccccc3C(F)(F)F)nnc12
inhibition of growth at 10 µg/mL (Echinochloa crus-galli [1]): 0% | inhibition of growth at 100 µg/mL (Echinochloa crus-galli [2]): 9% | inhibition of growth at 10 µg/mL [3]: 7% | inhibition of growth at 100 µg/mL [4]: 9%

CCOC(=O)c1c(C)nn2c(=O)n(-c3ccc(C(F)(F)F)cc3)nnc12
inhibition of growth at 10 µg/mL (Echinochloa crus-galli [1]): 0% | inhibition of growth at 100 µg/mL (Echinochloa crus-galli [2]): 10% | inhibition of growth at 10 µg/mL [3]: 82% | inhibition of growth at 100 µg/mL [4]: 90%

CCOC(=O)c1c(SC)nn2c(=O)n(-c3ccc(C(F)(F)F)cc3)nnc12
inhibition of growth at 10 µg/mL (Echinochloa crus-galli [1]): 2% | inhibition of growth at 100 µg/mL (Echinochloa crus-galli [2]): 22% | inhibition of growth at 10 µg/mL [3]: 4% | inhibition of growth at 100 µg/mL [4]: 18%

CCOC(=O)c1c(C(F)(F)F)nn2c(=O)n(-c3ccc(C(F)(F)F)cc3)nnc12
inhibition of growth at 10 µg/mL (Echinochloa crus-galli [1]): 9% | inhibition of growth at 100 µg/mL (Echinochloa crus-galli [2]): 18% | inhibition of growth at 10 µg/mL [3]: 0% | inhibition of growth at 100 µg/mL [4]: 2%

CCOC(=O)c1c(C)nn2c(=O)n(-c3ccc(Cl)cc3C(F)(F)F)nnc12
inhibition of growth at 10 µg/mL (Echinochloa crus-galli [1]): 6% | inhibition of growth at 100 µg/mL (Echinochloa crus-galli [2]): 14% | inhibition of growth at 10 µg/mL [3]: 0% | inhibition of growth at 100 µg/mL [4]: 63%

CCOC(=O)c1c(C(F)(F)F)nn2c(=O)n(-c3ccc(Cl)cc3C(F)(F)F)nnc12
inhibition of growth at 10 µg/mL (Echinochloa crus-galli [1]): 0% | inhibition of growth at 100 µg/mL (Echinochloa crus-galli [2]): 21% | inhibition of growth at 10 µg/mL [3]: 0% | inhibition of growth at 100 µg/mL [4]: 0%

CCOC(=O)c1c(C)nn2c(=O)n(-c3cc(C(F)(F)F)ccc3Cl)nnc12
inhibition of growth at 10 µg/mL (Echinochloa crus-galli [1]): 0% | inhibition of growth at 100 µg/mL (Echinochloa crus-galli [2]): 0% | inhibition of growth at 10 µg/mL [3]: 61% | inhibition of growth at 100 µg/mL [4]: 65%

CCOC(=O)c1c(SC)nn2c(=O)n(-c3cc(C(F)(F)F)ccc3Cl)nnc12
inhibition of growth at 10 µg/mL (Echinochloa crus-galli [1]): 2% | inhibition of growth at 100 µg/mL (Echinochloa crus-galli [2]): 11% | inhibition of growth at 10 µg/mL [3]: 0% | inhibition of growth at 100 µg/mL [4]: 13%

CCOC(=O)c1c(C(F)(F)F)nn2c(=O)n(-c3cc(C(F)(F)F)ccc3Cl)nnc12
inhibition of growth at 10 µg/mL (Echinochloa crus-galli [1]): 0% | inhibition of growth at 100 µg/mL (Echinochloa crus-galli [2]): 2% | inhibition of growth at 10 µg/mL [3]: 0% | inhibition of growth at 100 µg/mL [4]: 10%

CCOC(=O)c1c(C)nn2c(=O)n(-c3ccc(Cl)c(C(F)(F)F)c3)nnc12
inhibition of growth at 10 µg/mL (Echinochloa crus-galli [1]): 0% | inhibition of growth at 100 µg/mL (Echinochloa crus-galli [2]): 4% | inhibition of growth at 10 µg/mL [3]: 89% | inhibition of growth at 100 µg/mL [4]: 89%

CCOC(=O)c1c(SC)nn2c(=O)n(-c3ccc(Cl)c(C(F)(F)F)c3)nnc12
inhibition of growth at 10 µg/mL (Echinochloa crus-galli [1]): 0% | inhibition of growth at 100 µg/mL (Echinochloa crus-galli [2]): 26% | inhibition of growth at 10 µg/mL [3]: 22% | inhibition of growth at 100 µg/mL [4]: 24%

CCOC(=O)c1c(C)nn2c(=O)n(-c3c(Cl)cc(C(F)(F)F)cc3Cl)nnc12
inhibition of growth at 10 µg/mL (Echinochloa crus-galli [1]): 0% | inhibition of growth at 100 µg/mL (Echinochloa crus-galli [2]): 22% | inhibition of growth at 10 µg/mL [3]: 4% | inhibition of growth at 100 µg/mL [4]: 25%

CCOC(=O)c1c(SC)nn2c(=O)n(-c3c(Cl)cc(C(F)(F)F)cc3Cl)nnc12
inhibition of growth at 10 µg/mL (Echinochloa crus-galli [1]): 3% | inhibition of growth at 100 µg/mL (Echinochloa crus-galli [2]): 28% | inhibition of growth at 10 µg/mL [3]: 3% | inhibition of growth at 100 µg/mL [4]: 9%

CCOC(=O)c1c(C(F)(F)F)nn2c(=O)n(-c3c(Cl)cc(C(F)(F)F)cc3Cl)nnc12
inhibition of growth at 10 µg/mL (Echinochloa crus-galli [1]): 0% | inhibition of growth at 100 µg/mL (Echinochloa crus-galli [2]): 15% | inhibition of growth at 10 µg/mL [3]: 2% | inhibition of growth at 100 µg/mL [4]: 22%

CCOC(=O)c1c(C(F)(F)F)nn2c(=O)n(-c3ccc(Cl)c(C(F)(F)F)c3)nnc12
inhibition of growth at 10 µg/mL (Echinochloa crus-galli [1]): 0% | inhibition of growth at 100 µg/mL (Echinochloa crus-galli [2]): 0% | inhibition of growth at 10 µg/mL [3]: 13% | inhibition of growth at 100 µg/mL [4]: 14%

CC#COc1cc(-n2nnc3c(C(=O)OCC)c(SC)nn3c2=O)c(F)cc1Cl
inhibition of growth at 10 µg/mL (Echinochloa crus-galli [1]): 0% | inhibition of growth at 100 µg/mL (Echinochloa crus-galli [2]): 32% | inhibition of growth at 10 µg/mL [3]: 0% | inhibition of growth at 100 µg/mL [4]: 0%

CC#COc1cc(-n2nnc3c(C(=O)OCC)c(C(F)(F)F)nn3c2=O)c(F)cc1Cl
inhibition of growth at 10 µg/mL (Echinochloa crus-galli [1]): 0% | inhibition of growth at 100 µg/mL (Echinochloa crus-galli [2]): 28% | inhibition of growth at 10 µg/mL [3]: 0% | inhibition of growth at 100 µg/mL [4]: 0%

C=CCOc1cc(-n2nnc3c(C(=O)OCC)c(C)nn3c2=O)c(F)cc1Cl
inhibition of growth at 10 µg/mL (Echinochloa crus-galli [1]): 0% | inhibition of growth at 100 µg/mL (Echinochloa crus-galli [2]): 24% | inhibition of growth at 10 µg/mL [3]: 0% | inhibition of growth at 100 µg/mL [4]: 0%

C=CCOc1cc(-n2nnc3c(C(=O)OCC)c(SC)nn3c2=O)c(F)cc1Cl
inhibition of growth at 10 µg/mL (Echinochloa crus-galli [1]): 0% | inhibition of growth at 100 µg/mL (Echinochloa crus-galli [2]): 22% | inhibition of growth at 10 µg/mL [3]: 0% | inhibition of growth at 100 µg/mL [4]: 25%
